Test results from the NIST ThermoML archive (doi:10.1021/je900127m).
± gives the expanded uncertainty stated by the source.

Experiment: xn = mol fraction of the nth substance listed
Conditions: 313.15 K, Fluid (supercritical or subcritical phases), Bellows volumetry

O=C=O [carbon dioxide] + CCO
Conditions	mass density [kg/m3]
1000 kPa, x1 = 1	17.9 ± 0.2
2000 kPa, x1 = 0.1	787.2 ± 0.3
2000 kPa, x1 = 1	37.1 ± 0.2
3000 kPa, x1 = 0.1	788.2 ± 0.3
3000 kPa, x1 = 1	58.7 ± 0.2
4000 kPa, x1 = 0.1	789.2 ± 0.3
4000 kPa, x1 = 0.2	799.4 ± 0.3
4000 kPa, x1 = 1	83.5 ± 0.2
5000 kPa, x1 = 0.1	790.2 ± 0.3
5000 kPa, x1 = 0.2	800.6 ± 0.3
5000 kPa, x1 = 1	112.7 ± 0.2
6000 kPa, x1 = 0.1	791.1 ± 0.3
6000 kPa, x1 = 0.2	801.9 ± 0.3
6000 kPa, x1 = 0.3	811.2 ± 0.3
6000 kPa, x1 = 0.4	816.6 ± 0.2
6000 kPa, x1 = 1	148.8 ± 0.2
7000 kPa, x1 = 0.1	792.1 ± 0.3
7000 kPa, x1 = 0.2	803.1 ± 0.3
7000 kPa, x1 = 0.3	812.7 ± 0.3
7000 kPa, x1 = 0.4	818.7 ± 0.2
7000 kPa, x1 = 0.5	821.1 ± 0.2
7000 kPa, x1 = 1	197.3 ± 0.2
8000 kPa, x1 = 0.1	793.1 ± 0.3
8000 kPa, x1 = 0.2	804.2 ± 0.3
8000 kPa, x1 = 0.3	814.3 ± 0.3
8000 kPa, x1 = 0.4	820.8 ± 0.2
8000 kPa, x1 = 0.5	824 ± 0.2
8000 kPa, x1 = 0.6	818.8 ± 0.3
8000 kPa, x1 = 0.7	804.5 ± 0.5
8000 kPa, x1 = 0.8	771.1 ± 3.7
8000 kPa, x1 = 1	276.7 ± 0.4
9000 kPa, x1 = 0.1	794 ± 0.3
9000 kPa, x1 = 0.2	805.3 ± 0.3
9000 kPa, x1 = 0.3	815.7 ± 0.3
9000 kPa, x1 = 0.4	822.8 ± 0.2
9000 kPa, x1 = 0.5	826.8 ± 0.2
9000 kPa, x1 = 0.6	823 ± 0.3
9000 kPa, x1 = 0.7	811.5 ± 0.4
9000 kPa, x1 = 0.8	784.8 ± 0.9
9000 kPa, x1 = 0.899	729.1 ± 1.5
9000 kPa, x1 = 0.95	667 ± 4.9
9000 kPa, x1 = 1	483.4 ± 0.4
10000 kPa, x1 = 0.1	795 ± 0.3
10000 kPa, x1 = 0.2	806.6 ± 0.3
10000 kPa, x1 = 0.3	817.2 ± 0.3
10000 kPa, x1 = 0.4	824.7 ± 0.2
10000 kPa, x1 = 0.5	829.4 ± 0.2
10000 kPa, x1 = 0.6	827 ± 0.2
10000 kPa, x1 = 0.7	817.8 ± 0.4
10000 kPa, x1 = 0.8	795.8 ± 0.7
10000 kPa, x1 = 0.899	752.3 ± 1.1
10000 kPa, x1 = 0.95	709.8 ± 2.5
10000 kPa, x1 = 1	627.4 ± 0.4

CCO [ethanol] + O=C=O
x2 = 0
Conditions	mass density [kg/m3]
1000 kPa	773.1 ± 0.2
2000 kPa	773.9 ± 0.2
3000 kPa	774.8 ± 0.2
4000 kPa	775.5 ± 0.2
5000 kPa	776.4 ± 0.2
6000 kPa	777.2 ± 0.2
7000 kPa	778 ± 0.2
8000 kPa	778.8 ± 0.2
9000 kPa	779.6 ± 0.2
10000 kPa	780.4 ± 0.2
